This is an account of results in patent publication US20230331781A1, “PAR4 DERIVED PEPTIDES, ANALOGS AND USES THEREOF” (Yissum Research Development Company of the Hebrew …, priority 2019, published 2023).

Entries after “also recorded” stand apart in the source; their conditions may differ. Numbered stars: 1 amine (or outer) side, 2 acyl side, 3 side chain; on linkers, the order of the positions; unused ones are H or OH. Bridge positions count the residues as written; N and C are the ends. Square brackets hold non-standard residues; d marks the D form. Ends that are not written are not given here. GlyBU(C4) = Gly building unit (N-alpha-functionalized Gly) carrying a C4 alkyl chain (n = m = 4), bridged through a urea group; CO = O=C([*:1])[*:2]

Assay [1] concerns pEGFR. Nature of the assay: PAR4 induced pEGFR in MDA-MB-231 cells (Western blot). In kind it is cell-based, human. To be noted: endogenous PAR4 and EGFR, AYPGKF 200 μM, FIG. 17. The procedure:
Activation of PAR4 induces phosphorylation of EGFR. This is seen 15 min following AYPGKF the synthetic hexa peptide application for PAR4 activation. MDA-231 cells were serum starved over night following AYPGKF PAR4 activation (200 μM) for 5-60 min. Detection by Western blot analyses of pY-EGFR and EGFR was performed using either anti-phospho tyrosine or anti EGFR antibodies respectively. PAR4 activation induces EGFR tyrosine phosphorylation within 15 min.
We have performed immunohistochemical (IHC) staining analyses of EGFR in Her2/Neu and TN breast cancer patient tissues. Analyses have indicated the presence of EGFR in both HER2/Neu as also in TN breast cancer tissue biopsy specimen (FIGS. 16A and 16B, respectively). Pc(4-4) Inhibits PAR4 Induced pEGFR in MDA-MB-231 Cells MDA-MB-231 cells were serum starved overnight following AYPGKF PAR4 activation (200 μM) for 5-60 min in the presence and absence of Pc(4-4) (200 μM). Detection by Western blot analyses of pEGFR and EGFR was performed using either anti-phosphotyrosine or anti-EGFR antibodies (1:1000 dilution), respectively. […] AYPGKF activation of PAR4 leads to pTyr-EGFR in MDA-231 cells (see FIG. 17). […] In the presence of Pc(4-4) cyclic peptide (right panel) potently (200 μM) inhibition of the phosphorylation of EGFR is observed (FIG. 17). […]
(In general: A western blot detects proteins with antibodies after separation by electrophoresis.)

In assay [2] the test system is Lovo colon cancer cells. Nature of the assay: Matrigel invasion of Lovo colon cancer cells after AYPGKF PAR4 activation. The class given is cell-based. To be noted: PAR4 activated Lovo cells, 50 nM-150 μM, FIGS. 8B and 8C. As for the experimental part: HEK293 cells were transiently transfected with flg-Par4 followed by AYPGKF PAR4 activation in the presence and absence of PAR4c (4-4) within the range of 50 nM-150 μM. IP of cell lysates following different periods of activation was carried out using anti flg abs. Detection of Akt was performed by anti Akt abs. β-actin serves as a control gene for loading. […] Matrigel invasion before and after AYPGKF PAR4 activation and in the presence and absence of PAR4 c(4-4) inhibitor in the activated PAR4 cells. A range between 50 nM-150 μM PAR4 c(4-4) inhibitor was applied. While ample Matrigel invasion is seen following PAR4 activation, this was attenuated in the presence of the inhibitor in all the concentrations used, similar to control prior to PAR4 activation. FIG. 8C—Histograms represent quantification of the cells/HPF invaded the Matrigel layer. Unpaired Student's t test was used. This experiment is a representative of three independent experiments performed in triplicates. FIG. 8D-8K show Wound-scratch migration assay. Lovo cancer cell-line was grown to confluence. Then, an equal wound scratch was introduced to Lovo cell monolayers. […]
When we analyzed the impact of Pc(4-4) on the capability of activated PAR4 in Lovo colon cancer cell line to invade Matrigel, a robust invasion is seen (FIG. 8B), inhibited in the presence of Pc(4-4). […]

Assay [3] deals with Lovo cancer cell-line. The experiment in a line: Wound-scratch migration assay, Lovo cell monolayers. The class given is cell-based. To be noted: AYPGKF activated, 24 hr, 150 μM and 300 μM, FIG. 8D-8K. The procedure:
HEK293 cells were transiently transfected with flg-Par4 followed by AYPGKF PAR4 activation in the presence and absence of PAR4c (4-4) within the range of 50 nM-150 μM. IP of cell lysates following different periods of activation was carried out using anti flg abs. Detection of Akt was performed by anti Akt abs. β-actin serves as a control gene for loading. […] Matrigel invasion before and after AYPGKF PAR4 activation and in the presence and absence of PAR4 c(4-4) inhibitor in the activated PAR4 cells. A range between 50 nM-150 μM PAR4 c(4-4) inhibitor was applied. While ample Matrigel invasion is seen following PAR4 activation, this was attenuated in the presence of the inhibitor in all the concentrations used, similar to control prior to PAR4 activation. FIG. 8C—Histograms represent quantification of the cells/HPF invaded the Matrigel layer. Unpaired Student's t test was used. This experiment is a representative of three independent experiments performed in triplicates. FIG. 8D-8K show Wound-scratch migration assay. Lovo cancer cell-line was grown to confluence. Then, an equal wound scratch was introduced to Lovo cell monolayers. Monolayers were serum starved overnight and PAR4 was activated or not with AYPGKF. One hour prior to activation PAR4 c(4-4), either at 150 μM or 300 μM concentrations was added to the monolayers.
Migration was evaluated by “wound scratch assay” applied. […]

Assay [4] deals with HCT116 cells. Nature of the assay: Xenograft tumor model, HCT116 cells inoculated subcutaneously in nude mice. The class given is in vivo. Conditions: s.c., 100 μM, 0.25 mg/30 gm, 3 times/week, from day of inoculation or 4 days later, terminated after 20 days. The procedure: HCT116 cells (1×10^6) were injected subcutaneously to nude mice. Pc(4-4) (100 μM; 0.25 mg/30 gm) was subcutaneously injected, either at the same day of tumor cell inoculation or 4 days later. The inhibitor was applied repeatedly 3 times/week for 3 weeks. Mice were weighted every 3 days and tumor size was measured. Mice were sacrificed after 21 days. This is a representative of three times performed experiments. […] Tumor volume measurements of HCT116 cells inoculated into nude mice. Tumors were weighed and measured for size at the indicated time points and tumor volume was calculated. Error bars show s.d.; * P<0.05; *** P<0.001; while ns are considered as not significant.
Another cell lines used in the experiment was HCT-116, an aggressive colon cancer cell line overexpressing oncogenes including PAR4.
Male athymic nude mice aged 6-7 weeks were pre-implanted subcutaneously with the relevant cells (1×10^6 cells): either with HCT-116 or with RKO/hPar4 cells.
The inhibitor was injected at the site of the tumor at the day of inoculation. In an additional group, mice implanted with HCT-116 were administered with the inhibitor at day 4 after inoculation. […]
Mice were monitored for tumor size by external caliber measurements (length and width) on days 7, 14, 22 and for up to 32 days, if tumor burden allowed. Tumor volume (V) was calculated by V=L×W^2×0.5, where L is length and W is width. […]

Turning to “Pc(4-4): backbone cyclic analog of Formula I, m=n=4, ring size 30 atoms (S[GlyBU(C4)]EFRDK[GlyBU(C4)]; bridge 2-8 via CO; not fully specified; printed as SZ1EFRDKX3)”, in assay [1], the “inhibition of PAR4 induced phosphorylation of EGFR” value is reported as “potently inhibited”. Moreover, the “inhibition of Matrigel invasion” value is given as “inhibited” in assay [2] and “inhibits; also recorded: attenuated” in assay [2] (listed as PAR4 c(4-4)). Moreover, the results for the “inhibition of migration/proliferation (wound scratch)” value in assay [3] and in assay [3] (listed as PAR4 c(4-4)) were “marked inhibition” and “inhibits”, respectively. The “tumor growth / tumor size” value in assay [4] is “significantly smaller tumors; also recorded: potently inhibits”; in assay [4] (listed as PAR4 (4-4)) it was “much smaller tumors”.
